Results from ChEMBL document CHEMBL3217503, “Antivascular and anticancer activity of dihalogenated A-ring analogues of combretastatin A-4” (Medchemcomm, 2010).
Activity calls are given as the source filed them. The rule behind the calls is not given here.

What was measured:
[1] = system: SK-OV-3; assay: Cell cycle arrest in human SKOV3 cells assessed as accumulation at G1 phase at 5 nM after 24 hrs by propidium iodide staining-based flow cytometry (reference value: 54.4%); assay type: functional
[2] = system: SK-OV-3; assay: Cell cycle arrest in human SKOV3 cells assessed as accumulation at S phase at 5 nM after 24 hrs by propidium iodide staining-based flow cytometry (reference value: 31.2%); assay type: functional
[3] = system: HUVEC; assay: Antivascular activity in growth factor-induced HUVEC after 45 hrs xCELLigence analysis; assay type: functional, cell-based; conditions: Homo sapiens
[4] = system: HUVEC; assay: Antivascular activity in growth factor-induced HUVEC after 24 hrs xCELLigence analysis; assay type: functional, cell-based; conditions: Homo sapiens
[5] = system: SK-OV-3; assay: Cell cycle arrest in human SKOV3 cells assessed as accumulation at G2/M phase at 5 nM after 24 hrs by propidium iodide staining-based flow cytometry (reference value: 13.6%); assay type: functional
[6] = system: SK-OV-3; assay: Cytotoxicity against human SKOV3 cells assessed as cell viability after 48 hrs by MTS assay; assay type: functional, cell-based; conditions: SK-OV-3, 48 h
[7] = system: SK-OV-3; assay: Cytotoxicity against taxol-resistant human SKOV3 cells assessed as cell viability after 48 hrs by MTS assay; assay type: functional, cell-based; conditions: SK-OV-3, 48 h
[8] = system: HUVEC; assay: Antiproliferative activity against growth factor-induced HUVEC assessed as growth inhibition after 48 hrs by MTS assay; assay type: functional, cell-based; conditions: Homo sapiens
[9] = system: HeLa; assay: Antimitotic activity in human HeLa cells assessed as membrane blebbing at 0.1 to 1 uM after 16 hrs by Hoechst staining-based confocal microscopy; assay type: functional, cell-based
[10] = system: HeLa; assay: Antimitotic activity in human HeLa cells expressing GFP-tagged tubulin assessed as membrane blebbing during interphase at 10 nM after 51 mins by fluorescence-based spinning-disk confocal microscopy; assay type: functional, cell-based
[11] = system: HeLa; assay: Antimitotic activity in human HeLa cells assessed as depolymerisation of interphase microtubule network at 0.1 to 1 uM after 16 hrs by Hoechst staining-based confocal microscopy; assay type: functional, cell-based
[12] = system: HeLa; assay: Antimitotic activity in human HeLa cells expressing GFP-tagged tubulin assessed as membrane blebbing during interphase at 10 to 100 nM after 31 to 34 mins by fluorescence-based spinning-disk confocal microscopy; assay type: functional, cell-based
[13] = system: SK-OV-3; assay: Antimitotic activity in taxol-resistant human SKOV3 cells at 1 to 100 nM after 16 hrs by Hoechst staining-based confocal microscopy; assay type: functional, cell-based
[14] = system: PBMC; assay: Cytotoxicity in human PBMC assessed as cell viability up to 10 uM after 48 hrs by MTS assay; assay type: cell-based
[15] = system: HeLa; assay: Antimitotic activity in human HeLa cells assessed as redistribution of microtubules around nuclear envelope of cells at 100 nM after 16 hrs by Hoechst staining-based confocal microscopy; assay type: functional, cell-based
[16] = system: HeLa; assay: Antimitotic activity in human HeLa cells expressing GFP-tagged tubulin assessed as disappearance of mitotic spindle during metaphase at 10 to 100 nM after 21 to 36 mins by fluorescence-based spinning-disk confocal microscopy; assay type: functional, cell-based
[17] = system: SK-OV-3; assay: Antimitotic activity in human SKOV3 cells at 1 to 100 nM after 16 hrs by Hoechst staining-based confocal microscopy; assay type: functional, cell-based
[18] = system: HeLa; assay: Antimitotic activity in human HeLa cells expressing GFP-tagged tubulin assessed as collapse of mitotic spindle during anaphase at 10 nM after 31 mins by fluorescence-based spinning-disk confocal microscopy; assay type: functional, cell-based
[19] = system: HeLa; assay: Cytotoxicity against human HeLa cells assessed as cell viability after 48 hrs by MTS assay; assay type: functional, cell-based
[20] = system: HeLa; assay: Antimitotic activity in human HeLa cells assessed as disproportionate mitotic cells at 10 nM after 16 hrs by Hoechst staining-based confocal microscopy; assay type: functional, cell-based
[21] = system: K562; assay: Cytotoxicity against human K562 cells; assay type: functional, cell-based
[22] = system: SK-OV-3; assay: Cell cycle arrest in human SKOV3 cells assessed as accumulation at G2/M phase at 200 nM after 24 hrs by propidium iodide staining-based flow cytometry (reference value: 13.6%); assay type: functional
[23] = system: HeLa; assay: Antimitotic activity in human HeLa cells assessed as depolymerisation of interphase microtubule network at 10 to 100 nM after 16 hrs by Hoechst staining-based confocal microscopy; assay type: functional, cell-based
[24] = system: HeLa; assay: Antimitotic activity in human HeLa cells assessed as change in interphase microtubule network at 1 nM after 16 hrs by Hoechst staining-based confocal microscopy; assay type: functional, cell-based

| Structure (SMILES) | Activity [1] [%] | Activity [2] [%] | EC50 [3] [nM] | EC50 [4] [nM] | Activity [5] [%] | EC50 [21] [nM] | other results |
| --- | --- | --- | --- | --- | --- | --- | --- |
| COc1ccc(/C=C\c2cc(Cl)c(OC)c(Cl)c2)cc1O | 43.7 | 18.6 | 2.3 | 2.6 | 32.2 |  |  |
| COc1ccc(/C=C\c2cc(Br)c(OC)c(Br)c2)cc1O | 25.7 | 21 | 1.1 | 2.2 | 51.5 |  | EC50 [6]: 1.7 nM; EC50 [7]: 1.1 nM; EC50 [8]: 0.2 nM; Activity [9]: Active; Activity [10]: Active; Activity [11]: Active; Activity [12]: Active; Activity [13]: Active; Activity [14]: Non-toxic; Activity [15]: Active; Activity [16]: Active; Activity [17]: Active; Activity [18]: Active; EC50 [19]: 6.7 nM; Activity [20]: Active |
| COc1ccc(/C=C\c2cc(C)c(C)c(C)c2)cc1O |  |  |  |  |  | 20 |  |
| COc1ccc(/C=C\c2cc(F)c(OC)c(F)c2)cc1O |  |  | 224 | 193 |  |  | Activity [22]: 73.7% |
| COc1ccc(/C=C\c2cc(OC)c(OC)c(OC)c2)cc1O [COMBRETASTATIN A4] | 40.1 | 23.1 | 0.9 | 1.9 | 30.5 | 1 | EC50 [6]: 1.2 nM; EC50 [7]: 3.1 nM; EC50 [8]: 3.2 nM; Activity [14]: Non-toxic; EC50 [19]: 1.4 nM; Activity [23]: Active; Activity [24]: inactive |
| COc1ccc(/C=C\c2ccc(C)c(C)c2)cc1O |  |  |  |  |  | 70 |  |
| COc1ccc(/C=C\c2cc(I)c(OC)c(I)c2)cc1O | 1.3 | 12.9 | 0.9 | 0.9 | 83.6 |  |  |
| COc1ccc(/C=C\c2ccccc2)cc1O |  |  |  |  |  | 500 |  |
